From patent publication US8883124B2, “Use of fullerenes in photoacoustic imaging” (University of Florida Research Foundation, Inc., priority 2007, dated 2014)

Assays:
mouse tumor = experiment: In vivo PAT of mouse tumor after intratumoral injection
Description: In vivo experiments were carried with mouse tumor model. Six to eight week old BALB/c nude mice (CAnN.Cg-Foxn1nu/Crl) were purchased from Charles River and acclimated for 7 to 10 days. Supplemental estrogen (2 μg of 17β-estradiol valerate/week) was placed subcutaneously at least 1 week prior to tumor implantation. Mice were subcutaneously inoculated with 2×10^7 BT474 cells on the abdominal wall. Experiments were conducted 7-10 days following implantation, after the tumors had reached approximately 10 mm in size.
A volume of 30 μL of nanoparticle suspension (10 mg/mL for PHF and 0.45 mg/mL for CP-0.25) was injected into the mouse tumor. The mouse was placed in the water tank on an inclined plane with its head above the water surface. The PAT instrumentation for in vivo experiments was similar to that described for in vitro experiments, except that acoustic signals were collected over 300° range, giving a total of 100 measurements for each trial. PAT images of mouse tumor were obtained before and after injecting nanoparticles.

Water solubility = type: physicochemical

water solubility (Water solubility): water-soluble
Substance: Polyhydroxy fullerenes [PHF]
PAT signal in the region of the tumor after injection (mouse tumor; mouse tumor (BT474, BALB/c nude mice), intratumoral injection of 30 μL of 10 mg/mL, before vs after): large increase in PAT signal
contrast with the tumor and surrounding non-tumoral tissue in vivo using PAT (mouse tumor; mouse tumor, 30 μL intratumoral, 10 mg/mL for PHF and 0.45 mg/mL for CP-0.25): excellent contrast
